We go through one compound from paper PMC6896172, “Successful Targeting of the Warburg Effect in Prostate Cancer by Glucose-Conjugated 1,4-Naphthoquinones” (Cancers, 2019).

pIC50: −log10 of the molar value.

Test [1] concerns HEK293 cells. Briefly: MTT cytotoxicity assay in HEK293 cells. In kind it is cell-based. To be noted: Homo sapiens, 48 h of treatment, non-cancer. On the procedure: (§1) Dr. Dr. med. Sonja Loges (University Medical Center Hamburg-Eppendorf, Hamburg, Germany). Cells were cultured according to the manufacturers’ instructions and were recently authenticated by a commercial service (Multiplexion, Heidelberg, Germany). Culture conditions are described in the Supplementary Information.
(§2) MTT (3-(4,5-dimethylthiazol-2-yl)-2,5-diphenyltetrazolium bromide) cytotoxicity assay was used for the evaluation of cytotoxicity of the compounds or their combinations. Experiments were performed as previously described. In brief, 6000 cells/well were seeded in 96-well plate, incubated overnight, and treated with the drugs in 100 µL/well of 10% FBS/RPMI media containing 2 g/L of D-(+)-glucose for 48 h, unless otherwise stated. For 2 h treatment the cells were treated with the drugs for 2 h in the culture media, then the media was exchanged to fresh drug-free media (100 µL/well) containing MTT reagent and the further steps were performed as previously described.
In general terms: Tetrazolium dyes change colour on reduction, which living cells bring about.

Test [2] relates to 22Rv1 cells. Briefly: Mitochondrial membrane potential assay (JC-1, flow cytometry). In kind it is cell-based, human. To be noted: 2 h of treatment. The method, then: The loss of mitochondrial membrane potential (Δψ) was measured by flow cytometry technique using staining with Δψ-sensitive dye JC-1 (5,5′,6,6′-tetrachloro-1,1′,3,3′-tetraethylimidacarbocyanine iodide). Cells were seeded in 12-well plates (100 × 10^3 cells/well in 1 mL/well) and incubated overnight. Then, the media was changed to PBS (1 mL/well) containing the investigational drugs. After 2 h of incubation (37 °C, 5% CO2, in the dark) the cells were trypsinized, pelleted, resuspended in 100 µL of 2 µM JC-1/PBS, incubated for 1 h (37 °C, 5% CO2, in the dark) and Δψ loss was measured by flow cytometry technique.
Background: A flow cytometer gives signals particle by particle.

Test [3] has as its system DU145 cells. The test is described as follows: MTT cytotoxicity assay in DU145 cells. In kind it is cell-based. To be noted: Homo sapiens, DU-145, 48 h of treatment, cancer. The method, then: as §1, §2
Test [4] concerns PNT2 cells. Briefly: MTT cytotoxicity assay in PNT2 cells. In kind it is cell-based, human. To be noted: 48 h of treatment.
From the text: For general experiments human prostate cancer cell lines PC-3 and DU145 (docetaxel-resistant, androgen-independent, AR-FL(−), AR-V7(−)), 22Rv1 and VCaP (docetaxel-sensitive, androgen-independent, AR-FL(+), AR-V7(+), and LNCaP (docetaxel sensitive, androgen-dependent, AR-FL(+), AR-V7(−) were used. PC-3, 22Rv1, LNCaP cells as well as the human prostate non-cancer cells PNT2 and RWPE-1 were purchased from ATCC (Manassas, VA, USA). VCaP were purchased from ECACC (Salisbury, UK). The human fibroblast cell line MRC-9, the human embryonic kidney cell line HEK 293T, as well as the human umbilical vascular endothelial cell line HUVEC were kindly donated by Prof. Dr. Dr. med. Sonja Loges (University Medical Center Hamburg-Eppendorf, Hamburg, Germany). Cells were cultured according to the manufacturers’ instructions and were recently authenticated by a commercial service (Multiplexion, Heidelberg, Germany). Culture conditions are described in the Supplementary Information.
as §2
Table S4. Cytotoxic activity of the synthesized compounds. Cytotoxicity was determined in human prostate cancer PC-3 cells versus human prostate non-cancer
PNT2 cells after 48 h of treatment, as well as its ratio. IC50 was evaluated using MTT assay. SI–selectivity index. #–the IC50s in both cell lines were >100 µM.
Anisomycin was used as a reference substance.
No Formula IC50(PC-3) IC50(PNT2) SI […]

Regarding `CC1(C)OC2OC(C(O)COC3=CC(=O)c4cccc(O)c4C3=O)C(O)C2O1` (centres unmarked) [Compound 11], the pIC50 (as a rule, the IC50 on a negative log10 scale, so that one unit is a factor of ten) in test [1] was 5.35; in test [3], 6.33; in test [4] it was 5.30; in test [4] (Homo sapiens, PNT2, 48 h), 5.30. The “effect on ΔΨm” value in test [2] is reported as “quick ΔΨm loss”.
